Experimental data as given in patent publication US20100311736A1, “PYRIDOSULFONAMIDE DERIVATIVES AS P13 KINASE INHIBITORS” (GlaxoSMithKline LLC, priority 2007, published 2010).
Like-named read-outs stand apart in the source and are kept apart here.

Key:
Class I PI3-kinases = conditions: cited from earlier work
PI3Kα = biological target: T1, PI3Kα (Homo sapiens, UniProt P42336); assay: PI3K alpha enzyme inhibition (TR-FRET assay / Leadseeker SPA assay); assay type: biochemical; conditions: in at least one experimental run; read-out: IC50 against PI3Kα
T1 construct: His; made in house
T1 sequence (P42336 whole entry): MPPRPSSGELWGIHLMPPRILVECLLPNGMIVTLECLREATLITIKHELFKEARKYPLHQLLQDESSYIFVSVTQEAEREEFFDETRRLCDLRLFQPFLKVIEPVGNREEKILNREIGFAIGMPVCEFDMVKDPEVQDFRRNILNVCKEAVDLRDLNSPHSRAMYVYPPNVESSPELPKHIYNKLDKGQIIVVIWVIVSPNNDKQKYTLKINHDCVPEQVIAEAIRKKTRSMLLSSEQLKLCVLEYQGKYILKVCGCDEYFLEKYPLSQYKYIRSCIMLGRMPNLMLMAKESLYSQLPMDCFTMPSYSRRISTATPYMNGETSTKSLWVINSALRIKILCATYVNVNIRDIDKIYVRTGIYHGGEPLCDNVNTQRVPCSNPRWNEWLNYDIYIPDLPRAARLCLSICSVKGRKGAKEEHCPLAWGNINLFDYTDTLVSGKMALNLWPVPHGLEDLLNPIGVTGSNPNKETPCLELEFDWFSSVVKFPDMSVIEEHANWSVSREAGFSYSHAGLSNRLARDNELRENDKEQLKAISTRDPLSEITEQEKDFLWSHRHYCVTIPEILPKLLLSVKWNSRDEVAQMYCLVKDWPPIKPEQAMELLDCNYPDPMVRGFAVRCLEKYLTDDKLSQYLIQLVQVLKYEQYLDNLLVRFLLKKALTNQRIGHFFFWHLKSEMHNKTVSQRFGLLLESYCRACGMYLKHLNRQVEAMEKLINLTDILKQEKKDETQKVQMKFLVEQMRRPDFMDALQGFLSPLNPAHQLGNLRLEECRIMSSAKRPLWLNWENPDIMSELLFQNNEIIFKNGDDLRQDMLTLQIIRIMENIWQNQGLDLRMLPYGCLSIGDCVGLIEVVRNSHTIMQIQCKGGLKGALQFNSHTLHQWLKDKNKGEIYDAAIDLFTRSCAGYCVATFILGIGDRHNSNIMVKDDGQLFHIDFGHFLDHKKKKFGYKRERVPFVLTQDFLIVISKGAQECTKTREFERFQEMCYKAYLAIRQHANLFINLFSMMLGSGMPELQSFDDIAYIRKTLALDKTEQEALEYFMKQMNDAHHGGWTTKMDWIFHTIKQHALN
T1 sequence (P27986 whole entry partner): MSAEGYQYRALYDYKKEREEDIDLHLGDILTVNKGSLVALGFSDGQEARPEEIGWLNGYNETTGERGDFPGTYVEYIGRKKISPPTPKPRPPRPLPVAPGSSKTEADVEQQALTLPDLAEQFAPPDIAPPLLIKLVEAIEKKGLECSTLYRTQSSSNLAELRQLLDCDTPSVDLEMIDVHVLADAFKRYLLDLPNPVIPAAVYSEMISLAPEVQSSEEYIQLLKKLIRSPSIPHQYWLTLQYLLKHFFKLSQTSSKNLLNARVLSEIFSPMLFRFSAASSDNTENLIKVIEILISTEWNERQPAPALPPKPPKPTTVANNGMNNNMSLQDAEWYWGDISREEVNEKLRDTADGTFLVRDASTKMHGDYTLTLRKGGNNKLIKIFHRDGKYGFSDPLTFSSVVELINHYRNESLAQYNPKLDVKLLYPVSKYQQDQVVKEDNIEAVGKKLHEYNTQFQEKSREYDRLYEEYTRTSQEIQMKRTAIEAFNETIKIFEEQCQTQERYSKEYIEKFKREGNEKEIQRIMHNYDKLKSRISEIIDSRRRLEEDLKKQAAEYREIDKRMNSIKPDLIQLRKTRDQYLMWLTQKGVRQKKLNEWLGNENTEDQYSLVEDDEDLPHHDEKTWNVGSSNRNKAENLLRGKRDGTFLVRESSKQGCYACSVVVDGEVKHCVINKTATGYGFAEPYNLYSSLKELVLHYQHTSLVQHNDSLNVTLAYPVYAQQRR
Procedure: Compounds of the present invention were tested according to the following assays and found as inhibitors of PI3 kinases, particularly PI3Kα. The exemplified compounds were tested and found active against PI3Kα. The IC50's ranged from about 1 nM to 10 μM.
The PI3-Kinase assay has been developed and optimized from a kit produced by Upstate (Millipore). Briefly, this kit contains a biotinylated PIP3 which forms a HTRF (homogeneous time-resolved fluorescence energy transfer) complex when mixed with a Europium labeled anti-GST monoclonal antibody, a GST tagged pleckstrin homology (PH) domain, and Streptavidin-Allophycocyanin (APC). The unlabeled PIP3 produced by PI 3-Kinase activity displaces biotin-PIP3 from the complex resulting in a loss of energy transfer and thus a decrease in signal. Millipore, PI 3-Kinase (human) HTRF™ Assay, technical document associated with catalog #33-017
Compounds are serially diluted (3-fold in 100% DMSO) across a polypropylene 120 μL mother plate from column 1 to column 12 and column 13 to column 24, leaving columns 6 and 18 containing only DMSO to yield 11 concentrations for each test compound. Once titrations are made, 0.1 μL is transferred to the assay plates (Greiner 784075). This assay plate contains three controls: column 6 with DMSO, and column 18 with alternating 20 μM wortmannin and 40 μM PIP3. […] The PIP3 control is dispensed into the plate manually via a matrix pipettor, 1 μL of 200 μM PIP3 in 1× Reaction buffer to wells 18 B, D, F, H, J, L, N, P.
The PI3-Kinase assay has been developed and optimized from a kit produced by Upstate (Millipore). The assay kit (cat: 33-017) contains seven reagents: 1) 4× Reaction Buffer, 2) PIP2 (1 mM), 3) Stop A, 4) Stop B, 5) Detection Mix A, 6) Detection Mix B, 7) Detection Mix C. In addition the following items were obtained or purchased, PI3Kinase (prepared in-house), 4× PI3K Detection Buffer (Millipore), dithiothreitol (Sigma, D-5545), Adenosine-5′-triphosphate (ATP, Sigma, A-6419), PIP3 (1,2-dioctanoyl-sn-glycero-3-[phosphoinositil-3,4,5-triphosphate]tetraammonium salt (Avanti polar lipids, 850186P), DMSO (Sigma, 472301), Wortmannin (Sigma, W-1628).
Prepare 1× PI3Kinase Reaction Buffer by diluting stock 1:4 with de-ionized water, freshly prepared DTT is added at a final concentration of 5 mM on the day of use. Enzyme addition and compound preincubation is initiated by the addition of 2.5 μL of 2× enzyme solution, PI3K alpha in 1× reaction buffer, to all wells using a Multidrop Combi. Plates are incubated at room temperature for 15 minutes. Substrate addition and reaction initiation is completed by the addition of 2.5 μL of 2× substrate solution, PIP2 and ATP in 1× reaction buffer, to all wells using a Multidrop Combi. […] Incubate one hour, evaluate the HTRF signal on the Envision plate reader. […]

CK2 protein kinase = CK2 protein kinase (Homo sapiens, UniProt P68400); conditions: background statement; cited from earlier work
CK2 protein kinase, sequence (P68400 whole entry): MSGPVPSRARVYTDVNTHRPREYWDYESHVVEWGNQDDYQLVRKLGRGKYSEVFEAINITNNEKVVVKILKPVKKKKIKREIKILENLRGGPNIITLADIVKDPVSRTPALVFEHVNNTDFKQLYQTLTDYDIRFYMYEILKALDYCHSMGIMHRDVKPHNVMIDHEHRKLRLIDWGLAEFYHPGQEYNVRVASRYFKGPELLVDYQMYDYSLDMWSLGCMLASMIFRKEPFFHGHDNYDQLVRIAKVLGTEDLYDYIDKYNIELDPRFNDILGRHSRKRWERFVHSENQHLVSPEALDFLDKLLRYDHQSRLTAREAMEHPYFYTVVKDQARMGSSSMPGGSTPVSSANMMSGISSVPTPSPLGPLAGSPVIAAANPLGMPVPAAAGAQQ

SMILES | IC50 (PI3Kα) [nM] | other results
COC[C@H]1OC(=O)c2coc3c2[C@@]1(C)C1=C(C3=O)[C@@H]2CCC(=O)[C@@]2(C)C[C@H]1OC(C)=O [wortmannin] | – | IC50 (Class I PI3-kinases; wortmannin, background statement, read-out: IC50 against each of the various Class I PI3-kinases): 0.001 to 0.01 µM
O=S(=O)(Nc1cc(-c2cn[nH]c2)cnc1Cl)c1ccccc1 [Example 22, N-[2-chloro-5-(1H-pyrazol-4-yl)-3-pyridinyl]benzenesulfonamide] | 316 | –
O=S(=O)(Nc1cc(-c2ccc3nccn3c2)cnc1Cl)c1ccccc1 [Example 35, N-(2-chloro-5-imidazo[1,2-a]pyridin-6-yl-3-pyridinyl)benzenesulfonamide] | 13 | –
CNc1ncc(-c2cnc(Cl)c(NS(=O)(=O)c3ccccc3)c2)cn1 [Example 29, N-{2-chloro-5-[2-(methylamino)-5-pyrimidinyl]-3-pyridinyl}benzenesulfonamide] | 100 | –
O=S(=O)(Nc1cc(-c2ccc3ccccc3c2)cnc1Cl)c1ccccc1 [Example 27, N-[2-chloro-5-(2-naphthalenyl)-3-pyridinyl]benzenesulfonamide] | 631 | –
O=c1cc(N2CCOCC2)oc2c(-c3ccccc3)cccc12 [LY294002] | – | IC50 (Class I PI3-kinases; Fruman et al. 1998, read-out: IC50 against each of these PI3-kinases): 15 to 20 µM; IC50 (CK2 protein kinase): 5 to 10 µM
